{"source": "patent EP0533849B1", "about": "(ROUSSEL UCLAF, priority 1991, dated 1992)", "target": "Sucrose Phosphate Synthase (Zea mays, UniProt P31927)", "sequence (P31927 whole entry)": "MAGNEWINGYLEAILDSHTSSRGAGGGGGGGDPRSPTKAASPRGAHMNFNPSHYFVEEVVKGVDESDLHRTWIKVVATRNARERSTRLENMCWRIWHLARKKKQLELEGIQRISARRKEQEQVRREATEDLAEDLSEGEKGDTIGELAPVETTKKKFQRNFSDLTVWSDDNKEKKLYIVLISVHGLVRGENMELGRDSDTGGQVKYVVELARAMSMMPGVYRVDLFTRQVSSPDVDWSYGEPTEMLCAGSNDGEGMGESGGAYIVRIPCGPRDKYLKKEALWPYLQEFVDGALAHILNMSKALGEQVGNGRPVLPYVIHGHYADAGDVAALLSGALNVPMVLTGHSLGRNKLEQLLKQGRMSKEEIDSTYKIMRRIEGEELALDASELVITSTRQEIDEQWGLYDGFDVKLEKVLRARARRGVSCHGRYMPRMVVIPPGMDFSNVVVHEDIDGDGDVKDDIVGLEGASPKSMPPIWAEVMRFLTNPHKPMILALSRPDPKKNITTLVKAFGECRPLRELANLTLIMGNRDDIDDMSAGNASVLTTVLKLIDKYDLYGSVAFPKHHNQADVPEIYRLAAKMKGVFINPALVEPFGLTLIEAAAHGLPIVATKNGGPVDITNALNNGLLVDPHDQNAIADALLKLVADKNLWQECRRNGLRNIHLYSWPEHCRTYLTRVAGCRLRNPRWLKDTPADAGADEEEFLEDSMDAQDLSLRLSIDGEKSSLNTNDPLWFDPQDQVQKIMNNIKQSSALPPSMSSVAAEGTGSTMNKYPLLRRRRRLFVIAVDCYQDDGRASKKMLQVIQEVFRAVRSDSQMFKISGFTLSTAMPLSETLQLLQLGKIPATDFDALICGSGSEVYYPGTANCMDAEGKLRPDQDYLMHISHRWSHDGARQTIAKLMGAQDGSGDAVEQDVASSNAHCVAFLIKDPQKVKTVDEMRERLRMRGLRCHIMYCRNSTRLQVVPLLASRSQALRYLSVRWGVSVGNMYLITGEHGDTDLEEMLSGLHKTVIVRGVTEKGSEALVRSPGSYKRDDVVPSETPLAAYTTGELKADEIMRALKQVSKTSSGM", "settings": "phosphate gradient of the HAC (hydroxyapatite) stage", "procedure": "During purification SPS activity is followed in 2 ways : • a) either by means of a colorimetric test (P.S. Kerr et al., Planta., 1987, 170 : 515-519) called resorcinol test described below. […] In practice, to 45 µl (microliter) of enzymatic preparation 25 µl of a buffered solution containing the two substrates is added (UDPG 70 mM, F6P 28 mM, MgCl2 15 mM, HEPES 25 mM pH 7,5). After incubation at 37°C, reaction is stopped by adding 70 µl of NaOH in solution and heating at 95°C during 10 mn. After cooling, 0,25 ml of a solution 0,1 % resorcinol in ethanol 95 % is added, then 0,75 ml of HCl 30 % is added. The OD 520 mM is read after incubation 8 mn at 80 mn, and cooling. • b) or by means of a coupled enzymatic system (S. Harbron et al., Anal. Biochem. 1980, 107 : 56-59) being composed in the following way : [drawing 3]\nThe disappearance of the NADH absorption at 340 nm is monitored 1 mole of NAD formed or 1 mole of NADH consumed corresponds to 1 mole of sucrose 6 P formed.\nIn pratice, in a quartz spectrophotometric tun thermostated at 37°C, the following solution are added. • 540 µl of HEPES buffered 50 mM, MgCl2 10 mM KCl 20 mM pH=7.5, • 250 µl of a mixture of substrates PEP (1,6 mM NaDH 0,6 mM, ATP 4 mM UDPG 112 mM), • 60 µl of an enzyme mixture (LDH 166,7 U/ml PK 333,3 U/ml, NPzK 66,7 U/ml), • 100 µl of F6P 112 mM. […]", "data": [{"substance": "phosphate", "values": [{"measurement": "inhibition of SPS activity", "value": "partially inhibit SPS activity"}]}]}
